Experimental data: article PMC3845358 (Journal of immunology (Baltimore, Md. : 1950), 2013)
Values after ≈ are worked out from the molar mass of the structure shown.

Experiments:
[1] = tested on: Human peripheral blood mononuclear (PBMC) cells; assay: LPS-stimulated cytokine release from PBMC; assay type: cell-based; conditions: 16 h
Fbxo3 [2] = target: T1, Fbxo3 (Homo sapiens, UniProt Q9UK99); assay: Reversibility of Fbxo3 inhibition by ultrafiltration and Fbxl2 pull-down; conditions: 1 mg/ml, one or three rounds of ultrafiltration (3 kDa cutoff)
T1 sequence (Q9UK99 1-471): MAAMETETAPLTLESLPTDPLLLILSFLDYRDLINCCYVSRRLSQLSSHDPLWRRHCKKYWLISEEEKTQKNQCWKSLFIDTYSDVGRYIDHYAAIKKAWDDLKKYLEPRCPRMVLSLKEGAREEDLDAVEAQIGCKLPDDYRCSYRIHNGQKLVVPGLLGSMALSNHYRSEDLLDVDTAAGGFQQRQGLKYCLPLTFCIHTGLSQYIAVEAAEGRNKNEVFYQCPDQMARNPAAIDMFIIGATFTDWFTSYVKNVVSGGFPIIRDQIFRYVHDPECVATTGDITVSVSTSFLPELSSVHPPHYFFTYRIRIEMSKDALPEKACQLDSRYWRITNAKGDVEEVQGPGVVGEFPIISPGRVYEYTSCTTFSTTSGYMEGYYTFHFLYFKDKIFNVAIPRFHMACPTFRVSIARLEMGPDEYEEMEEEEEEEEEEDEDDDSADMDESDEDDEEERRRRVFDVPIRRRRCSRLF

COX-1 = COX-1 (Homo sapiens, UniProt P23219); assay: Purified enzyme activity assay, COX-1; conditions: 10 µM, purified protein
COX-2 [3] = target: T2, COX-2 (Mus musculus, UniProt Q05769); assay: COX-2 activity and COX-2 levels in MLE cells; assay type: cell-based, murine; conditions: 16 h
T2 sequence (Q05769 18-604): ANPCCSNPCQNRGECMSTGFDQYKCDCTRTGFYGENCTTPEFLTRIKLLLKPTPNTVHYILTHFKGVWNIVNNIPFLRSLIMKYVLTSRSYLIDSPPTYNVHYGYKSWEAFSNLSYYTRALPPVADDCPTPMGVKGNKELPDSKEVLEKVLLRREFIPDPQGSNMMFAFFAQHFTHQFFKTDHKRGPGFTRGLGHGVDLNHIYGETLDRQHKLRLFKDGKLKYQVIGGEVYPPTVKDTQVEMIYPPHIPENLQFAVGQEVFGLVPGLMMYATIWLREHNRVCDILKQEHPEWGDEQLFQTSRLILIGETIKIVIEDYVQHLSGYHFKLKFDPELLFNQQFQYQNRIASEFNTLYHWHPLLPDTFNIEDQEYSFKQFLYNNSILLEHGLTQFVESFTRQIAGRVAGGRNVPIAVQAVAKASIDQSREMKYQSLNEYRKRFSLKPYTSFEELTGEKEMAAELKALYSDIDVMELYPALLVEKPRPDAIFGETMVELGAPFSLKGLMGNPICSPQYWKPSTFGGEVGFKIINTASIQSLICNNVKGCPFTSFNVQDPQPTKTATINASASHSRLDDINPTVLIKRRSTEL

LOX-1 = assay: Purified enzyme activity assay, LOX-1; conditions: 10 µM, purified protein
[4] = tested on: Murine lung epithelial (MLE) cells; assay: Immunoblotting of Fbxl2, TRAFs and Fbxl2 substrates in MLE cells
TRAF 1–6 in MLE cells = assay: TRAF protein half-life; conditions: different concentrations, 16 h
[5] = tested on: C57BL6 mice challenged with H1N1 (A/PR/8/34); assay: H1N1 influenza pneumonia model; assay type: in vivo, mouse; conditions: 30 µg/ml in drinking water
[6] = Observation of treated animals across the inflammation models; assay type: in vivo, mouse; conditions: parenteral, oral, topical application
bacterial growth = assay: Kirby Bauer testing of bacterial growth; conditions: data not shown
SCF^Fbxo3 = SCF^Fbxo3 (Homo sapiens, UniProt Q9UK99); assay: In vitro ubiquitin conjugation assay of Fbxl2; assay type: biochemical
[7] = tested on: C57BL6 mice fed dextran sulfate sodium (DSS); assay: DSS-induced colitis model; assay type: in vivo, mouse; conditions: 100 µg i.p. daily
[8] = tested on: carrageenan-treated C57BL6 mice; assay: Carrageenan paw edema model; assay type: in vivo, mouse; conditions: 100 µg i.p. daily, 48 h, versus vehicle
LPS-treated PBMC = assay: Cytokine array of LPS-treated PBMC; assay type: cell-based, human; conditions: 10 µg/ml, LPS 2 µg/ml, 16 h
Fbxo3 [9] = target: T1, Fbxo3; assay: Fbxo3/Fbxl2 protein interaction pull-down assay; assay type: binding; conditions: Fbxo3 beads from Hela cell lysates, 10^−11 to 10^−4 M tested
[10] = tested on: C57BL6 mice given TPA on ears; assay: TPA-induced ear edema model; assay type: in vivo, mouse; conditions: topical 8, 40, 200 ug/ear, 18 h after TPA, versus vehicle
COX-2 [11] = target: T3, COX-2 (Homo sapiens, UniProt P35354); assay: Purified enzyme activity assay, COX-2; conditions: 10 µM, purified protein
T3 sequence (P35354 18-604): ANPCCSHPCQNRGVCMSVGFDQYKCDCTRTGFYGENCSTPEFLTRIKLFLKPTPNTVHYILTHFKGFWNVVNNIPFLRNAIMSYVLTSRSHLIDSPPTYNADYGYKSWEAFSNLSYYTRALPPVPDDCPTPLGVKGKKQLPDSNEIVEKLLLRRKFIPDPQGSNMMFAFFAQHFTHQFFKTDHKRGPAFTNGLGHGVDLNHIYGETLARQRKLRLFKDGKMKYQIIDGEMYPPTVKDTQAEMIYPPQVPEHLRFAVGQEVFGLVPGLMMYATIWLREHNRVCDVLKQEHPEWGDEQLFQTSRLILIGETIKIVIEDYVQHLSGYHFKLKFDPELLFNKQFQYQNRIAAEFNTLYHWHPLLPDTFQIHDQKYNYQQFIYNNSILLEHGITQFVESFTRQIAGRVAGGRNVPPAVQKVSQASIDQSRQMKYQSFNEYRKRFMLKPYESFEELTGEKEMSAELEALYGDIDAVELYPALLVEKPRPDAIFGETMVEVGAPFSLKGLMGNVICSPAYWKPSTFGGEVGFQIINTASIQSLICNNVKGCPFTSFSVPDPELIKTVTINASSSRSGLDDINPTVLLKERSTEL

Chain of COX-1 (P23219 24-599): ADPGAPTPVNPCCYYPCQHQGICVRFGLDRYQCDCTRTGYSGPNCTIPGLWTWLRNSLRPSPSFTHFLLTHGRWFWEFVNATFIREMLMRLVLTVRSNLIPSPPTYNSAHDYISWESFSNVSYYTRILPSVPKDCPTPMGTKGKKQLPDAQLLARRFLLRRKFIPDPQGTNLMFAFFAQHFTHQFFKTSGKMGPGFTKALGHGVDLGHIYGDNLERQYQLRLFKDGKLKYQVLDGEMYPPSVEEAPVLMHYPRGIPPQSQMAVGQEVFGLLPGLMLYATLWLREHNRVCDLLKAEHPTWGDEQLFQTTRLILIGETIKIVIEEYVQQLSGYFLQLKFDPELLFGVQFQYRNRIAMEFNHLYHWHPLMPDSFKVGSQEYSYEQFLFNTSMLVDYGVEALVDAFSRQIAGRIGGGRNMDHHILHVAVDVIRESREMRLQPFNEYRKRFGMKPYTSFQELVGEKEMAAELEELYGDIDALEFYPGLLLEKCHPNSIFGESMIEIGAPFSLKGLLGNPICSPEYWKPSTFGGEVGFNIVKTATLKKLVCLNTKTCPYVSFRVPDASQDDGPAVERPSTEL
Chain of SCF^Fbxo3 (Q13616 whole entry partner, one chain of several): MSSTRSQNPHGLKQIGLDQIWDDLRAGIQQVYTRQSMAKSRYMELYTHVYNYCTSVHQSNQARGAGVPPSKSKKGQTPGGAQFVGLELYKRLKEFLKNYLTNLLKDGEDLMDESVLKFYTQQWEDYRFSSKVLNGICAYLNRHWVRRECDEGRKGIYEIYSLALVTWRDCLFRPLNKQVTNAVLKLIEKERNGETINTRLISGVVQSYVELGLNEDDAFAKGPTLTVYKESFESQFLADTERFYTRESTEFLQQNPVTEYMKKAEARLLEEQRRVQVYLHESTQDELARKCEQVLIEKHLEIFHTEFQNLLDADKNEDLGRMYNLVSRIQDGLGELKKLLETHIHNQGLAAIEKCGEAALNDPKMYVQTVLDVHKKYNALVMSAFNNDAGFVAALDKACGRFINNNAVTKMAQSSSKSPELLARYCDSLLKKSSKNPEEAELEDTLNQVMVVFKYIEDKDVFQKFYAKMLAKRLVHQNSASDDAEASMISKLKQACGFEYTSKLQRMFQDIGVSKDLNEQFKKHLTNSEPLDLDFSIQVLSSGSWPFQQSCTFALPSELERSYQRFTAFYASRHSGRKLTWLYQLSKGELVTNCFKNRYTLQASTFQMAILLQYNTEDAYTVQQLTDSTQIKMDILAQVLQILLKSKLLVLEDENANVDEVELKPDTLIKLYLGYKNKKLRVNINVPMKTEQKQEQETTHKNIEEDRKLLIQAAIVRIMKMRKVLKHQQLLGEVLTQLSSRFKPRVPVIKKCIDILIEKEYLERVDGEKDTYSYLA
Chain of SCF^Fbxo3 (P63208 whole entry partner, one chain of several): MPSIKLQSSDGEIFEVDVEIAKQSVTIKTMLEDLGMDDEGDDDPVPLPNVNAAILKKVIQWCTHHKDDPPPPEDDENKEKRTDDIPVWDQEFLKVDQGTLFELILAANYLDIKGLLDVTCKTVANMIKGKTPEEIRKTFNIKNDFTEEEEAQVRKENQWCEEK
Chain of SCF^Fbxo3 (P62877 whole entry partner, one chain of several): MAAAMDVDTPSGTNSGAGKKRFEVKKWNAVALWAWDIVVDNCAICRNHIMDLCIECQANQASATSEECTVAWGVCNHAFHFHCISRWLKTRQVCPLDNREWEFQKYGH

c1ccc(CNCCNCc2ccccc2)cc1 [benzathine, reference compound]
IC50 for IL-1β ([1]; LPS 2 µg/ml, ELISA): 25 µg/mL

c1ccc(-c2ccc(CNCCNCc3ccc(-c4ccccn4)cc3)cc2)nc1 [BC-1215]
reversibility of Fbxo3 inhibition (Fbxo3 [2]): reversible | inhibition of COX-1 enzymatic activity (COX-1): does not cause significant inhibitory effects | COX-2 activity in cells (COX-2 [3]; 10 µg/ml, positive control DuP-697): did not alter COX-2 activity | immunoreactive COX-2 levels (COX-2 [3]; different concentrations, immunoblotting): did not alter immunoreactive COX-2 levels | inhibition of LOX-1 enzymatic activity (LOX-1): does not cause significant inhibitory effects | TNFα-induced TRAF2/TRAF3 up-regulation and p38, p-IKK activation ([4]; MLE cells co-treated with TNFα 10 ng/ml, 6 h): suppress such effects in a dose-dependent manner | levels of Fbxl2 substrates cyclin D2, cyclin D3 and CCT ([4]; MLE cells, 16 h, immunoblotting): reduced | immunoreactive Fbxl2 and TRAF protein levels ([4]; cells, range of concentrations, compared to benzathine control): increased immunoreactive Fbxl2 levels and reduced TRAF proteins | TRAF steady-state mRNA levels (TRAF 1–6 in MLE cells): without altering TRAF steady-state mRNA levels | lavage cell counts [5]: remarkably decreased | lavage protein concentration [5]: remarkably decreased | lung compliance ([5]; day 5, FlexiVent): increased compliance | lung elastance ([5]; day 5, FlexiVent): reduced elastance | pulmonary edema, hemorrhage and alveolar inflammation ([5]; gross images and H&E): lessened severity | survival ([5]; up to 9 d, versus diluent): significantly increased survival | overt signs of distress in treated animals [6]: not observed to exhibit overt signs of distress | inhibition of bacterial growth (bacterial growth): modest inhibition of bacterial growth | IC50 ([1]; Homo sapiens, read-out: IC50 for IL-1β): 0.9 µg/mL (≈ 2.28 µM) | IC50 (SCF^Fbxo3): 100 nM | colon length ([7]; 3.5% DSS five days, compared to control): no significant decrease in colon length | TRAF protein levels in colon tissue ([7]; immunoblotting): significant reduction of immunoreactive TRAF2 and TRAF4 content | IL1β level in colonic tissue ([7]; versus vehicle): large reduction | TNFα level in colonic tissue ([7]; versus vehicle): large reduction | colon histology (H&E and Alcian staining) ([7]; versus vehicle): significant restoration of colonic crypts with reappearance of goblet cells | paw edema (volume) [8]: significantly reduce | paw thickness [8]: significantly reduce | release of Th1 panel cytokines (LPS-treated PBMC): remarkably suppressed the majority of the Th1 panel cytokines | concentration of maximal inhibitory binding (Fbxl2 pull-down by Fbxo3 beads) (Fbxo3 [9]): 10^−7 M | ear thickness [10]: significantly reduced | ear weight (punch biopsy) [10]: significantly reduced | inhibition of COX-2 enzymatic activity (COX-2 [11]): does not cause significant inhibitory effects
